Assays:
[1] = system: PIKFYVE TDP-43 yeast strain; test: Propidium iodide viability assay in PIKFYVE TDP-43 yeast strain; assay type: cell-based; conditions: for PIKfyve TDP-43 (active/inactive): PIKFYVE TDP-43 yeast model
Excerpt: (§1) Generation of TDP-43 yeast model expressing human PIKfyve. Human PIKFYVE (“entry clone”) was cloned into pAG416GPDccdB (“destination vector”) according to standard Gateway cloning protocols (Invitrogen, Life Technologies). The resulting pAG416GPD-PIKFYVE plasmids were amplified in E. coli and plasmid identity confirmed by restriction digest and Sanger sequencing. Lithium acetate/polyethylene glycol-based transformation was used to introduce the above PIKFYVE plasmid into a BY4741 yeast strain auxotrophic for the ura3 gene and deleted for two transcription factors that regulate the xenobiotic efflux pumps, a major efflux pump, and FAB1, the yeast ortholog of PIKFYVE (MATa, snq2::KILeu2; pdr3::Klura3;pdrl::NATMX; fab1::G418^R, his3;leu2;ura3;met15;LYS2+) (FIG. 2). Transformed yeast were plated on solid agar plates with complete synthetic media lacking uracil (CSM-ura) and containing 2% glucose. Individual colonies harboring the control or PIKFYVE TDP-43 plasmids were recovered. A plasmid containing wild-type TDP-43 under the transcriptional control of the GAL1 promoter and containing the hygromycin-resistance gene as a selectable marker was transformed into the fab1::G418^R pAG416GPD-PIKFYVE yeast strain (FIG. 1). Transformed yeast were plated on CSM-ura containing 2% glucose and 200 μg/mL […] after overnight recovery in media lacking antibiotic. Multiple independent isolates were further evaluated for cytotoxicity and TDP-43 expression levels.
(§2) Viability Assay. A control yeast strain with the wild-type yeast FAB1 gene and TDP-43 (“FAB1 TDP-43”, carries empty pAG416 plasmid), and the “PIKFYVE TDP-43” yeast strain, were assessed for toxicity using a propidium iodide viability assay. Both yeast strains were transferred from solid CSM-ura/2% glucose agar plates into 3 mL of liquid CSM-ura/2% glucose media for 6-8 hours at 30° C. with aeration. Yeast cultures were then diluted to an optical density at 600 nm wavelength (OD600) of 0.005 in 3 mL of CSM-ura/2% raffinose and grown overnight at 30° C. with aeration to an OD600 of 0.3-0.8. Log-phase overnight cultures were diluted to OD600 of 0.005 in CSM-ura containing either 2% raffinose or galactose and 150 μL dispensed into each well of a flat bottom 96-well plates. Compounds formulated in 100% dimethyl sulfoxide (DMSO) were serially diluted in DMSO and 1.5 μL diluted compound transferred to the 96-well plates using a multichannel pipet. Wells containing DMSO alone were also evaluated as controls for compound effects. Tested concentrations ranged from 15 μM to 0.11 μM. Cultures were immediately mixed to ensure compound distribution and covered plates incubated at 30° C. for 24 hours in a stationary, humified incubator.
(§3) Upon the completion of incubation, cultures were assayed for viability using propidium iodide (PI) to stain for dead/dying cells. A working solution of PI was made where, for each plate, 1 μL of 10 mM PI was added to 10 mL of CSM-ura (raffinose or galactose). The final PI solution (50 μL/well) was dispensed into each well of a new round bottom 96-well plate. The overnight 96-well assay plate was then mixed with a multichannel pipet and 50 μL transferred to the PI-containing plate. This plate was then incubated for 30 minutes at 30° C. in the dark. A benchtop flow cytometer (Miltenyi MACSquant) was then used to assess red fluorescence (B2 channel), forward scatter, and side scatter (with following settings: gentle mix, high flow rate, fast measurement, 10,000 events). Intensity histograms were then gated for “PI-positive” or “PI-negative” using the raffinose and galactose cultures treated with DMSO as controls. The DMSO controls for raffinose or galactose-containing cultures were used to determine the window of increased cell death and this difference set to 100. All compounds were similarly gated and then compared to this maximal window to establish the percent reduction in PI-positive cells.

FAB1 TDP-43 yeast strain = test: Propidium iodide viability assay in FAB1 TDP-43 control yeast strain; assay type: cell-based; conditions: for FAB1 TDP-43 (active/inactive): FAB1 TDP-43 yeast model
Excerpt: as §1, §2, §3

[2] = target: PIKfyve (PIKFYVE-NanoLuc fusion in HEK293 cells) (Homo sapiens (Human), UniProt Q9Y2I7); test: NanoBRET TE Intracellular Kinase Assay, K-8 (Promega) cell-based assay; conditions: 2 hours, read-out: hPIKfyve BRET IC50
Protocol: NanoBRET™ TE Intracellular Kinase Assay, K-8 (Promega) Cell-Based Assay. Intracellular inhibition of PIKfyve was assayed using Promega's NanoBRET™ TE Intracellular Kinase Assay, K-8 according to manufacturer's instructions. A dilution series of test compounds was added for 2 hours to HEK293 cells transfected for a minimum of 20 hours with PIKFYVE-NanoLuc® Fusion Vector (Promega) containing a full-length PIKfyve according to manufacturer's specifications in a 96-well plate. Kinase activity was detected by addition of a NanoBRET™ tracer reagent, which was a proprietary PIKfyve inhibitor appended to a fluorescent probe (BRET, bioluminescence resonance energy transfer). Test compounds were tested at concentrations of 10, 3, 1, 0.3, 0.1, 0.03, 0.01, 0.003 μM. BRET signals were measured by a GloMax®Discover Multimode Microplate Reader (Promega) using 0.3 sec/well integration time, 450BP donor filter and 600LP acceptor filters. Active test compounds that bound PIKfyve and displaced the tracer reduced BRET signal. IC50 values were then calculated by fitting the data to the normalized BRET ratio.

[3] = target: full-length human PIKFYVE (GST-PIKFYVE) (Homo sapiens (Human), UniProt Q9Y2I7, L932S/Q1183K/Q995L/S1033A/S696N/T998S); test: PIKfyve biochemical assay (ADP-Glo Kinase assay, Carna Biosciences); conditions: ADP-Glo, full-length human PIKFYVE; read-out: hPIKfyve IC50
Excerpt: PIKfyve Biochemical Assay. The biochemical PIKFyve inhibition assays were run by Carna Biosciences according to proprietary methodology based on the Promega ADP-Glo™ Kinase assay. A full-length human PIKFYVE [1-2098(end) amino acids and S696N, L932S, Q995L, T998S, S1033A and Q1183K of the protein having the sequence set forth in NCBI Reference Sequence No. NP_055855.2] was expressed as N-terminal GST-fusion protein (265 kDa) using baculovirus expression system. GST-PIKFYVE was purified by using glutathione sepharose chromatography and used in an ADP-Glo™ Kinase assay (Promega). Reactions were set up by adding the test compound solution, substrate solution, ATP solution and kinase solution, each at 4× final concentrations. Reactions were prepared with assay buffer (50 mM MOPS, 1 mM DTT, pH7.2), mixed, and incubated in black 384 well polystyrene plates for 1 hour at room temperature. ADP-Glo™ reagent was then added for 40 minutes, followed by kinase detection reagent for an additional 40 minutes. The kinase activity was evaluated by detecting relative light units on a luminescence plate reader. Samples were run in duplicate from 10 μM to 3 nM. […] IC50 values were calculated from concentration vs % inhibition curves by fitting to a four-parameter logistic curve.
The biochemical PIKFyve inhibition assays were run by Carna Biosciences according to proprietary methodology based on the Promega ADP-Glo™ Kinase assay. A full-length human PIKFYVE [1-2098(end) amino acids and S696N, L932S, Q995L, T998S, S1033A and Q1183K of accession number NP_055855.2] was expressed as N-terminal GST-fusion protein (265 kDa) using baculovirus expression system. GST-PIKFYVE was purified by using glutathione sepharose chromatography and used in an ADP-Glo™ Kinase assay (Promega).
Reactions were set up by adding the test compound solution, substrate solution, ATP solution and kinase solution, each at 4× final concentrations. Reactions were prepared with assay buffer (50 mM MOPS, 1 mM DTT, pH7.2), mixed, and incubated in black 384 well polystyrene plates for 1 hour at room temperature. ADP-Glo™ reagent was then added for 40 minutes, followed by kinase detection reagent for an additional 40 minutes. The kinase activity was evaluated by detecting relative light units on a luminescence plate reader. Samples were run in duplicate from 10 uM to 3 nM. […] IC50 values were calculated from concentration vs % inhibition curves by fitting to a four-parameter logistic curve.

PIKfyve (PIKFYVE-NanoLuc fusion in HEK293 cells), sequence (Q9Y2I7 whole entry, the tested form may be a part): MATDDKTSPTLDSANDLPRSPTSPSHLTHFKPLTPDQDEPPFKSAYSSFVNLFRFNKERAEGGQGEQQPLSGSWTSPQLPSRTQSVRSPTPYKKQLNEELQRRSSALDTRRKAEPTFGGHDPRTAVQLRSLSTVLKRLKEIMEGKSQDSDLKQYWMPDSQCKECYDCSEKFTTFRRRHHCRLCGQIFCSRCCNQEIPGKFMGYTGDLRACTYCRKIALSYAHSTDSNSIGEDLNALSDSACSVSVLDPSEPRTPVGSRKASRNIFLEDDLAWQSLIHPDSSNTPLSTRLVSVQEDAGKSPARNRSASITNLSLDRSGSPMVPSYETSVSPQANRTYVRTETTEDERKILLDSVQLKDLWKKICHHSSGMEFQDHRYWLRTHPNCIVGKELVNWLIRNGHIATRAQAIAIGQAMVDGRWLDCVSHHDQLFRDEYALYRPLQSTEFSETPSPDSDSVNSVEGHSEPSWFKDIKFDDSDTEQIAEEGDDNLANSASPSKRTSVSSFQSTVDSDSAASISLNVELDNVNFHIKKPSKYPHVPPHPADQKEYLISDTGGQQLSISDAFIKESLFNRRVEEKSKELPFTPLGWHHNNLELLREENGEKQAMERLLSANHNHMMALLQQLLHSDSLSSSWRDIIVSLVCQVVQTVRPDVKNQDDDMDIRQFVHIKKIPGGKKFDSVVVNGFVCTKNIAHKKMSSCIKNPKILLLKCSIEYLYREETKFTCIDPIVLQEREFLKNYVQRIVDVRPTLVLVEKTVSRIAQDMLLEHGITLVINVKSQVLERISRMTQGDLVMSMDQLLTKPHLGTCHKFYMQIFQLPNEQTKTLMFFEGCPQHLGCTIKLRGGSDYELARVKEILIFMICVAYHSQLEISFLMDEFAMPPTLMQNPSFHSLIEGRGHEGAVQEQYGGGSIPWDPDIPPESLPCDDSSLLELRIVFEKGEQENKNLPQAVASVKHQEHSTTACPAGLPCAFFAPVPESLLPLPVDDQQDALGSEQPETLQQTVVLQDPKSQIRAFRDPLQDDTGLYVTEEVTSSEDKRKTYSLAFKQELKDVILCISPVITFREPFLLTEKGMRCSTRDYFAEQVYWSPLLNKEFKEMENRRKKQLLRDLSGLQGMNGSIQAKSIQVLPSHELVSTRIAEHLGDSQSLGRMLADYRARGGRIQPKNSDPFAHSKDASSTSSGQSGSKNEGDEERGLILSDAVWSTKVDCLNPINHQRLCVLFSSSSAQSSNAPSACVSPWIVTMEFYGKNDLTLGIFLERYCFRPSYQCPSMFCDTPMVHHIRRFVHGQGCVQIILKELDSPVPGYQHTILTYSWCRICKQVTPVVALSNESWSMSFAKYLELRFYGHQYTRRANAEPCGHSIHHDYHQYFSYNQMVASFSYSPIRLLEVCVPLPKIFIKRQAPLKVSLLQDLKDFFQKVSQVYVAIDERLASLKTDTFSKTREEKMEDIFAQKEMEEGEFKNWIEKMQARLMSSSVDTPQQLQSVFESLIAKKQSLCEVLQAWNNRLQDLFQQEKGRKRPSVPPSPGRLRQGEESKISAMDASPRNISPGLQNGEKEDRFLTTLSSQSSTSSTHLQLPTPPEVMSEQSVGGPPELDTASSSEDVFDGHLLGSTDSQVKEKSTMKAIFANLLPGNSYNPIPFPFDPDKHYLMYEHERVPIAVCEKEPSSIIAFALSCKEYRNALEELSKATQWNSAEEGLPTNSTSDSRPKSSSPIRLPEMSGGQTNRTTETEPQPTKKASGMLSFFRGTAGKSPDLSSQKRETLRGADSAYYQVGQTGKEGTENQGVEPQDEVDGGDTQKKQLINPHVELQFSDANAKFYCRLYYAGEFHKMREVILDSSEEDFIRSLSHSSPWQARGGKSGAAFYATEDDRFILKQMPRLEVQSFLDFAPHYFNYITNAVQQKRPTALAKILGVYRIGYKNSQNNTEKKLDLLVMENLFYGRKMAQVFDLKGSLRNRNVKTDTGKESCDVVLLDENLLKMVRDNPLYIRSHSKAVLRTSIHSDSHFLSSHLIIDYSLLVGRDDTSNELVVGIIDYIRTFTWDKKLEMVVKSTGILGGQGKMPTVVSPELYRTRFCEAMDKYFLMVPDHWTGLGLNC
full-length human PIKFYVE (GST-PIKFYVE), sequence (Q9Y2I7 whole entry S696N/L932S/Q995L/T998S/S1033A/Q1183K, the tested form may be a part): as the sequence (Q9Y2I7 whole entry, the tested form may be a part) above, with S696N, L932S, Q995L, T998S, S1033A, Q1183K counted along it

| Compound | PIKfyve TDP-43 (active/inactive) [1] | FAB1 TDP-43 (active/inactive) (FAB1 TDP-43 yeast strain) | IC50 [2] [µM] | IC50 [3] [µM] | other results |
| --- | --- | --- | --- | --- | --- |
| Cc1cccc(/C=N/Nc2cc(N3CC4CC3CO4)n3nc(-c4ccncc4)cc3n2)c1 (stereo not drawn) | Active | Inactive | – | – | – |
| Cn1c(-c2ccncc2)nc2c(N3CCOCC3)ncnc21 | Inactive | Inactive | – | – | – |
| CN(C)c1cc(N2CCOCC2)n2nc(-c3ccncc3)cc2n1 | Inactive | Inactive | – | – | – |
| N#Cc1cc(N2CCOCC2)n2nc(-c3ccncc3)cc2n1 | Inactive | Inactive | – | – | – |
| Cc1cccc(/C=N/Nc2cc(N3CCOCC3)n3nc(-c4ccncc4)cc3n2)c1 [APY0201, reference compound] | – | – | – | – | propidium iodide-positive dead cells in PIKFYVE TDP-43 ([1]; 0.23 μM, FIG. 6): reduced the population of propidium iodide-positive dead cells; viable cells in FAB1 TDP-43 (FAB1 TDP-43 yeast strain; range of compound concentrations (only 0.23 μM is shown), FIG. 5): no increase in viable cells |
| Cc1cccc(-c2cc(O)n(-c3nc(N4CCOCC4)c4ncccc4n3)n2)c1 [compound 26, 1-(4-morpholinopyrido[3,2-d]pyrimidin-2-yl)-3-m-tolyl-1H-pyrazol-5-ol] | – | – | 0.1 to 1 | 0.01 to 0.1 | – |
| c1ccc(-c2nccc(-c3nc(N4CCOCC4)c4ncccc4n3)n2)cc1 [compound 39, 4-(2-(2-phenylpyrimidin-4-yl)pyrido[3,2-d]pyrimidin-4-yl)morpholine] | – | – | 0.1 to 1 | < 0.01 | – |
| c1ccc(Nc2nc(N3CCOCC3)c3ncc(Cc4cccnc4)cc3n2)cc1 [compound 79] | – | – | 0.1 to 1 | 0.1 to 1 | – |
| Cc1cccc(/C=N/Nc2nc(N3CCOCC3)c3ncc(Cc4cccnc4)cc3n2)c1 [compound 80] | – | – | 0.01 to 0.1 | 0.01 to 0.1 | – |
| Cc1cccc(-c2cc(O)n(-c3nc(N4CCOCC4)c4ncc(Cc5cccnc5)cc4n3)n2)c1 [compound 81] | – | – | 0.1 to 1 | 0.01 to 0.1 | – |
| Cc1cccc(/C=N/Nc2cc(N3CCOCC3)n3nc(-c4ccncc4)cc3n2)c1 [drawing 292] | Active | Inactive | – | – | – |
| Cc1cccc(/C=N/Nc2nc(N3CCOCC3)c3nc(-c4ccncc4)n(C)c3n2)c1 [drawing 294] | Active | Inactive | – | – | – |
